Experimental data: PMC9112332, “Structure-Based Design of α-Substituted Mercaptoacetamides as Inhibitors of the Virulence Factor LasB from Pseudomonas aeruginosa” (ACS Infectious Diseases, 2022)
Like-named read-outs stand apart in the source and are kept apart here.

Key:
[1] = molecular target: T1, LasB (Pseudomonas aeruginosa, UniProt Q02RJ6); conditions: Figure 1; read-out: IC50 (reported LasB inhibitors, Figure 1); cited from earlier work
[2] = molecular target: ColH-PD (Hathewaya histolytica, UniProt Q46085); experiment: biochemical; set-up: species or system C. histolyticum
[3] = system: P. aeruginosa PA14; experiment: Antibacterial activity (MIC) assay; assay type: cell-based, Pseudomonas aeruginosa
[4] = molecular target: T2, MMP-1 (Homo sapiens, UniProt P03956); experiment: Human off-target inhibition assay, MMP-1; assay type: biochemical
T2 sequence (P03956 100-469): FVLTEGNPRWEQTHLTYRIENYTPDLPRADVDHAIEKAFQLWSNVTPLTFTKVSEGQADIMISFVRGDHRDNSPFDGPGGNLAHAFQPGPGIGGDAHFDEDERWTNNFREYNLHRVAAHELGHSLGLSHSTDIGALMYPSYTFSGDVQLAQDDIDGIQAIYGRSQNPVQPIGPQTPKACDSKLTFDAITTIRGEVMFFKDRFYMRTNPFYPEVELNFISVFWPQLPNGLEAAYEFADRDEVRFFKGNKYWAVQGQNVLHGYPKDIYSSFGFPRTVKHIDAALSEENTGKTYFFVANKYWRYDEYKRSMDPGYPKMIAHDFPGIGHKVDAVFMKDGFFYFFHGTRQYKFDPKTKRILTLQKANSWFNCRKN

[5] = molecular target: T3, MMP-2 (Homo sapiens, UniProt P08253); experiment: Human off-target inhibition assay, MMP-2; assay type: biochemical
T3 sequence (P08253 110-660): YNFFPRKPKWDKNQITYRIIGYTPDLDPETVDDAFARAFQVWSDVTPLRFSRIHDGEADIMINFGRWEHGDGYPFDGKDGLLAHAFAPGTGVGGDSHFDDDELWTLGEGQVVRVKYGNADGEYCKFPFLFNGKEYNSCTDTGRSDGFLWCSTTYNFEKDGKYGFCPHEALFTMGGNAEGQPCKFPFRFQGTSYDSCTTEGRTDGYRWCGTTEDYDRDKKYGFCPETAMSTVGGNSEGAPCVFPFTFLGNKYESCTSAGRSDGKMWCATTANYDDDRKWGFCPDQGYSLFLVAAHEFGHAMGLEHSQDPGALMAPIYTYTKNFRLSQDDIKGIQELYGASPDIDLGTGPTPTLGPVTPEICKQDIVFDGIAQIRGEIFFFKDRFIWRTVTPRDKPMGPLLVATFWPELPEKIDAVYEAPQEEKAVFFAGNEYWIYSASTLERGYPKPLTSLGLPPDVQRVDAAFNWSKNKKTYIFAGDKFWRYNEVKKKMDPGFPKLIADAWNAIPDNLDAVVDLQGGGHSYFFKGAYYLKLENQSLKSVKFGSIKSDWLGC

[6] = molecular target: MMP-3 (Homo sapiens, UniProt P08254); experiment: Human off-target inhibition assay, MMP-3; assay type: biochemical
[7] = molecular target: T4, MMP-7 (Homo sapiens, UniProt P09237); experiment: Human off-target inhibition assay, MMP-7; assay type: biochemical
T4 sequence (P09237 95-267): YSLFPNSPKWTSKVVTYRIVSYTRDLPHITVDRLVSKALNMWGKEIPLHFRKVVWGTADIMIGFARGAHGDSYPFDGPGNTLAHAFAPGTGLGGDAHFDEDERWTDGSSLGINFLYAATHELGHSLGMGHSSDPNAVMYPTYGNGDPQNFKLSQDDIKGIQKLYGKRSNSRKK

[8] = molecular target: MMP-8 (Homo sapiens, UniProt P22894); experiment: Human off-target inhibition assay, MMP-8; assay type: biochemical
[9] = molecular target: MMP-14 (Homo sapiens, UniProt P50281); experiment: Human off-target inhibition assay, MMP-14; assay type: biochemical
[10] = molecular target: ADAM17 (Homo sapiens, UniProt P78536); experiment: Human off-target inhibition assay, ADAM17 (TACE); assay type: biochemical
[11] = molecular target: HDAC-3 (Homo sapiens, UniProt O15379); experiment: Human off-target inhibition assay, HDAC-3; assay type: biochemical
Experimental: (§1) Table 3 Activities of Four LasB Inhibitors against the Selected MMPs (% of inhibition at 100 μM) and Further Human Off-Targets ^a | column: 3; 12; 13; 23

[12] = molecular target: T5, HDAC-8 (Homo sapiens, UniProt Q9BY41); experiment: Human off-target inhibition assay, HDAC-8; assay type: biochemical
T5 sequence (Q9BY41 1-377): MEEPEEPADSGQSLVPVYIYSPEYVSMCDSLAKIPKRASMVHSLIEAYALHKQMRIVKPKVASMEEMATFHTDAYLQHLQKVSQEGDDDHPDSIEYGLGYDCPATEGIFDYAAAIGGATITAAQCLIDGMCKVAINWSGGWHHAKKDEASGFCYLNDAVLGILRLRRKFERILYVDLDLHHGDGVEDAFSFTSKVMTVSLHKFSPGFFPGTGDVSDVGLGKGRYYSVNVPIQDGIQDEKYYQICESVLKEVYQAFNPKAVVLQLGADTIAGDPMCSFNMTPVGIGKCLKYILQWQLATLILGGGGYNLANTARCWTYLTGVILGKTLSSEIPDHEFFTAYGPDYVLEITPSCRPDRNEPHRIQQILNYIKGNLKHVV
Experimental: as §1

[13] = Cytotoxicity assay, HepG2; assay type: cell-based; conditions: HepG2 cells; human hepatoma cell line
[14] = Cytotoxicity assay, HEK293; assay type: cell-based; conditions: HEK293 cells; human embryonic kidney cells
[15] = Cytotoxicity assay, A549; assay type: cell-based; conditions: A549 cells; adenocarcinomic human alveolar basal epithelial cells
[16] = system: zebrafish embryos; experiment: Zebrafish embryo toxicity (maximum tolerated concentration) assay; assay type: in vivo
[17] = system: A549 cells treated with ΔlasB PA14 supernatant; assay type: cell-based, human; conditions: 15% (v/v) ΔlasB PA14 supernatant, MTT
[18] = system: G. mellonella larvae; experiment: In vivo Galleria mellonella virulence assay; conditions: compound with wt PA14 supernatant, after 6 days
[19] = system: A549 cells treated with wt PA14 supernatant; conditions: 15% (v/v) wt PA14 supernatant, MTT
[20] = system: A549 cells treated with wt PA14 supernatant; experiment: cells; conditions: Homo sapiens, A549, 24 h, read-out: increase in viability of A549 cells
[21] = molecular target: T1, LasB; experiment: LasB inhibition assay (FRET-based, in vitro); conditions: for activity of pure LasB: 0.3 nM pure LasB
Experimental: LasB Inhibition Assay. The purification of LasB from P. aeruginosa P14 supernatant as well
as the subsequent performance of the FRET-based in vitro inhibition assay was performed as
described previously.1 All samples were run in duplicate for each condition, and experiments
were performed independently at least twice.

[22] = system: A549 cells

T1 sequence (Q02RJ6 198-498): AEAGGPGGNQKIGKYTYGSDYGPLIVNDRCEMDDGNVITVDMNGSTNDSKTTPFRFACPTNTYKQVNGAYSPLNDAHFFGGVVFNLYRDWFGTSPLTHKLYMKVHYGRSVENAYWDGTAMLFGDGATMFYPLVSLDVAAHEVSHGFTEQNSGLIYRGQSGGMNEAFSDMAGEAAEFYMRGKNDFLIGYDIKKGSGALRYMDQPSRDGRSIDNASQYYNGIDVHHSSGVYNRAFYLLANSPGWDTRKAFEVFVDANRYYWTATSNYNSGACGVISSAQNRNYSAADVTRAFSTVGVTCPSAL
Chain of MMP-3 (P08254 100-477): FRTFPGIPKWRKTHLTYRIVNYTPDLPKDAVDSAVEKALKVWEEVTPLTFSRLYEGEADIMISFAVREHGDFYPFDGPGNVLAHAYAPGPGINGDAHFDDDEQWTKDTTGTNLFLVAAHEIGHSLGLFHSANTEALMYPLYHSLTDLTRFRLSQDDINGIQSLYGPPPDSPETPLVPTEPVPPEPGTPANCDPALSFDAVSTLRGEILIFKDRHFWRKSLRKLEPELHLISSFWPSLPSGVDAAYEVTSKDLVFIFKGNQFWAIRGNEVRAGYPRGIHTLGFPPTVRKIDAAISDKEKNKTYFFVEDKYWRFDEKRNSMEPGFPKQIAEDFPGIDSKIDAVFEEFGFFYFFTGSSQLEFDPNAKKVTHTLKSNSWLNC
Chain of HDAC-3 (O15379 whole entry): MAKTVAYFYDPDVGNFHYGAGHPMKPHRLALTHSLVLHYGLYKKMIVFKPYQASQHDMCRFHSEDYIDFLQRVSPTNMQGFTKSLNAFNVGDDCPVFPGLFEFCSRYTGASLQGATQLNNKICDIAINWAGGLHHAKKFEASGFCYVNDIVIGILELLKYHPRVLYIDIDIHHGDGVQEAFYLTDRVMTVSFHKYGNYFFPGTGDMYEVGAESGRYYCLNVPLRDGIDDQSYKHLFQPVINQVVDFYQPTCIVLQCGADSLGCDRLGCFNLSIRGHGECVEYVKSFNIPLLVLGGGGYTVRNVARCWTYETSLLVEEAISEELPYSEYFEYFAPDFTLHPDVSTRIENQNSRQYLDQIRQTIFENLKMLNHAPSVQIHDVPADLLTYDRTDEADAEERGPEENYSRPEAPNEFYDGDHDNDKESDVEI
Chain of HDAC-3 (Q9Y618 395-489 partner limits assumed): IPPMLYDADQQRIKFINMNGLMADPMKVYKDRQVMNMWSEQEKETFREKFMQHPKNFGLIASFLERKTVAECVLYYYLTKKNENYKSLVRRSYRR
Chain of ADAM17 (P78536 215-824): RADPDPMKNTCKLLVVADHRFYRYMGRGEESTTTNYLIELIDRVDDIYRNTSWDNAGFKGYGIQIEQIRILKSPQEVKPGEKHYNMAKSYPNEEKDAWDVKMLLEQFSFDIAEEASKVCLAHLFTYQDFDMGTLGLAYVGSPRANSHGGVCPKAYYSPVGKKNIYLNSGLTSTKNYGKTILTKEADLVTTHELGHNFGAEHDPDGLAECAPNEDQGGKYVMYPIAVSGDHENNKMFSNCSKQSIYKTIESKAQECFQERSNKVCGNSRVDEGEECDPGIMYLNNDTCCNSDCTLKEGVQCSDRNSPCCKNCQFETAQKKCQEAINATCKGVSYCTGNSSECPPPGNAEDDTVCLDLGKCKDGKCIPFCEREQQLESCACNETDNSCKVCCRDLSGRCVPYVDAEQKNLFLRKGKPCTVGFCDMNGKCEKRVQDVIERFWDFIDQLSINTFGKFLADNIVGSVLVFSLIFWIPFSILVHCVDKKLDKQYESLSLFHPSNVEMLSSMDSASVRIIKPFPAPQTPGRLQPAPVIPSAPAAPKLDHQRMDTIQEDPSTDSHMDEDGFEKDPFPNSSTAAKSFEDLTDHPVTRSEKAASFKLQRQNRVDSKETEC
Chain of MMP-8 (P22894 101-467): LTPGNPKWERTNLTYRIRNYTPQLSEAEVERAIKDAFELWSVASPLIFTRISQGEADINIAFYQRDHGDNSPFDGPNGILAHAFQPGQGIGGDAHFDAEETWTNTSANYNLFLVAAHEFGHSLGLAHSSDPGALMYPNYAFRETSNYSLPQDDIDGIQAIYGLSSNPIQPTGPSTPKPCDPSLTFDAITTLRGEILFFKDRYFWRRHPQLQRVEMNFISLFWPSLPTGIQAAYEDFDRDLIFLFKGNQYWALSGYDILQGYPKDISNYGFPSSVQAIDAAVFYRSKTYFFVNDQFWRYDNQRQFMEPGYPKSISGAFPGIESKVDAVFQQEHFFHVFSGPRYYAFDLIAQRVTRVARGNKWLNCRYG
Chain of ColH-PD (Q46085 331-721 limits assumed): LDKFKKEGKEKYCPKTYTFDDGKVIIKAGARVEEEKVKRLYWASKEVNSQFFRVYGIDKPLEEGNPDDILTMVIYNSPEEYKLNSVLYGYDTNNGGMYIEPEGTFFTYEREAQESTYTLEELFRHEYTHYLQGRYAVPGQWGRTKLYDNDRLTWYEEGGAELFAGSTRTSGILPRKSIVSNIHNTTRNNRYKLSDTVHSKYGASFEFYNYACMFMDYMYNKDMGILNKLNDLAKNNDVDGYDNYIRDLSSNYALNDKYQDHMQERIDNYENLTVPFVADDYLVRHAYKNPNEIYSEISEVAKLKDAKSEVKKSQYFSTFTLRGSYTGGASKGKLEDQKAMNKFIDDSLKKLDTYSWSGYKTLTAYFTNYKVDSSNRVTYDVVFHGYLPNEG

## O=C(O)CC1(C(=O)NCc2nc3ccccc3s2)Cc2ccccc2C1 [Compound 1]
[1]
  IC50: 0.159 µM

## O=C(CC(=O)Nc1ccc(Cl)c(Cl)c1)NO [Compound 2]
[1]
  IC50: 17.4 µM

## O=C(Nc1nc2ccccc2s1)C(S)Cc1ccccc1 (stereo not shown) [Compound 23, N-(Benzo[d]thiazol-2-yl)-2-mercapto-3-phenylpropanamide]
[2]
  Ki: 0.1 ± 0.01 µM
[3]; Pseudomonas aeruginosa, P. aeruginosa PA14
  MIC: > 100 µM
[3]; at 100 μM
  reduction of bacterial growth: less than 10%
[4]
  inhibition at 100 µM: < 10%
[5]
  inhibition at 100 µM: < 10%
[6]
  inhibition at 100 µM: < 10%
[7]
  inhibition at 100 µM: < 10%
[8]
  inhibition at 100 µM: < 10%
[9]
  inhibition at 100 µM: < 10%
[10]
  IC50: 10.4 ± 0.2 µM
[11]
  IC50: > 100 µM
[12]
  IC50: > 100 µM
[13]
  IC50: > 100 µM
[14]
  IC50: > 100 µM
[15]
  IC50: > 100 µM
[16]; 2 µM
  Survival rate %: 100%
[16]; 30 µM
  Survival rate %: 70%
[16]; 30 µM, Table S2
  toxicity (larvae with toxicity signs): 30%
[16]; 50 µM, 2 dpf
  embryo observation: imp. dev.
[16]; 50 µM, 3 dpf
  embryo observation: 5 imp. dev.
[16]; 50 µM, 4 dpf
  embryo observation: 5 imp. dev.
[16]; 50 µM, 5 dpf
  embryo observation: 5 imp. dev.
[16]; 100 µM
  Survival rate %: 0%
[16]; 100 µM, 2 dpf
  embryo observation: imp. dev.
[16]; 100 µM, 3 dpf
  embryo observation: 5 imp. dev.
[16]; 100 µM, 4 dpf
  embryo observation: 5 imp. dev.
[16]; 100 µM, 5 dpf
  embryo observation: 5 imp. dev.
[16]; zebrafish embryos, until 120 hpf
  maximum tolerated concentration (MTC): ≤ 30 µM
[17]
  effect on A549 cells treated with ΔlasB PA14 supernatant (in words): no effect
[18]
  survival of larvae: 70 ± 5%
[19]
  effect on viability of A549 cells treated with wt PA14 supernatant (in words): Dose-dependent effect
[20]
  viability at 50 µM: 80 ± 15%
[21]
  IC50: 0.7 ± 0.1 µM
[21]; calculated from LasB activity
  ligand efficiency (LE): 0.48
  lipophilic ligand efficiency (LLE): 3.21

## Cl.O=C(O)CCP(CCC(=O)O)CCC(=O)O [TCEP, Tris(2-carboxyethyl)phosphine hydrochloride]
[22]
  viability of A549 cells: no effect on cell viability
[21]; 0.6 mM TCEP and lower
  activity of pure LasB: no inhibition
[21]; 5 mM and […] TCEP
  activity of pure LasB: completely lost
